Tests used:
Hsp90AB1 [1] = target: T1, Hsp90AB1 (Homo sapiens, UniProt P08238); assay: SPR (Biacore, CM5 chip with immobilized protein); also competes with CE-P in HUVEC lysate pull-down; format: binding
T1 construct: recombinant human Hsp90AB1 protein

Hsp90AB1 [2] = target: T1, Hsp90AB1; assay: SPR (Biacore, CM5 chip with immobilized protein); also click pull-down of recombinant protein and from HUVEC lysate; format: binding

T1 sequence (P08238 2-724): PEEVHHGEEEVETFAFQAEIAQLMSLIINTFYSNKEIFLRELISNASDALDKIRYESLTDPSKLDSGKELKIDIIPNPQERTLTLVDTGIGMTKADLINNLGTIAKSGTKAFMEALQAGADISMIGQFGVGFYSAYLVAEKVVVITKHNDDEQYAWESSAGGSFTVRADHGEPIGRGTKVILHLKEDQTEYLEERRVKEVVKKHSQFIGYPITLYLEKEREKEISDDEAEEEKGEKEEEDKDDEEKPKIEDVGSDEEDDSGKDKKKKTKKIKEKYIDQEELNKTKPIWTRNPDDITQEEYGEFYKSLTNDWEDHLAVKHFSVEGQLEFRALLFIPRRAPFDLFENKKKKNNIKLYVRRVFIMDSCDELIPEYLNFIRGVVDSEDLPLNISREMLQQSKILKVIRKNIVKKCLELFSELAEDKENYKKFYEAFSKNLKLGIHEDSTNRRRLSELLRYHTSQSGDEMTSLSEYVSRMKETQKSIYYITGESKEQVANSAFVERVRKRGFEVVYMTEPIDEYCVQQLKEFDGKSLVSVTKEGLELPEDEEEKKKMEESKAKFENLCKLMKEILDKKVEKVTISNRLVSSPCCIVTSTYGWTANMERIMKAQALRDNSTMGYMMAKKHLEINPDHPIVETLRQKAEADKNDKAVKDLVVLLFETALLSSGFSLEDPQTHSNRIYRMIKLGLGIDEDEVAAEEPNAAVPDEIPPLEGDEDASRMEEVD

SMILES: CC1(C)CC[C@]2(C(=O)O)CC[C@]3(C)C(=CC[C@@H]4[C@@]5(C)CC[C@H](O[C@@H]6O[C@H](C(=O)O)[C@@H](O)[C@H](O)[C@H]6O)C(C)(C)[C@@H]5CC[C@]43C)[C@@H]2C1 [CE, Calenduloside E]
- Kd (Hsp90AB1 [1]): 2.34 µM

SMILES: C#CCNC(=O)C12CCC(C)(C)C[C@H]1C1=CC[C@@H]3[C@@]4(C)CC[C@H](O[C@@H]5O[C@H](C(=O)O)[C@@H](O)[C@H](O)[C@H]5O)C(C)(C)[C@@H]4CC[C@@]3(C)[C@]1(C)CC2 (some centres unmarked) [VI, CE-P]
- Kd (Hsp90AB1 [2]): 23.4 µM

Reference: article PMC5974765, “Targets Fishing and Identification of Calenduloside E as Hsp90AB1: Design, Synthesis, and Evaluation of Clickable Activity-Based Probe” (Frontiers in Pharmacology, 2018)
